# Reference: article PMC8131842, “Therapeutic Potential of Vasoactive Intestinal Peptide and its Derivative Stearyl-Norleucine-VIP in Inflammation-Induced Osteolysis” (Frontiers in Pharmacology, 2021)
# Tests used:
# [1] = tested on: rats; experiment: Study 001–1 acute subcutaneous toxicity in rats; type: in vivo, rat
# Procedure: Toxicology. We performed toxicology studies for SNV that consisted of acute subcutaneous, intravenous and oral toxicity in rats, acute dermal toxicity in rabbits, skin sensitization using adjuvant and patch test in guinea pigs, and single and repeated (for 13 weeks) dose toxicity studies in rats. The latter was a 90-days repeated dose toxicity study, consisting of SNV once a day at three different doses to the penis and vagina of male and female rats, respectively. The compound was tested for the treatment of erectile dysfunction. The active dose (7 µg SNV) was chosen as the lowest dose for the study. The highest dosage group in the repeated dose toxicity study received 3,500 µg ([Gozes et al., 1994]). For study 001 (parts 1 through 3), the 1× dose consisted of 0.5 mg SNV dissolved in 7.1 ml vehicle (3.55 ml 10% Sefsol [glycerin monocaprylate] + 3.55 ml isopropanol) and 100µl/animal were administered; the 1000X dose consisted of 91 mg SNV dissolved in 1.3 ml vehicle (0.65 ml 10% Sefsol +0.65 ml isopropanol) and 100µl/animal were administered. For studies 002 through 004, the indicated doses of SNV (Table 1) were dissolved in 0.25 ml 10% Sefsol +0.25 ml 40% isopropanol (vehicle). The methodology for each of the toxicology studies is detailed in Table 1.
# [2] = tested on: M-CSF + RANKL treated pre-osteoclasts; experiment: Osteoclastogenesis assay, direct effect in the absence of inflammation (TRAP staining); type: cell-based, mouse; conditions: 10^-6 M, no inflammation, TRAP-positive multinucleated osteoclasts after 5 days, n=5, p<0.01
# Procedure: Osteoclastogenesis assay. Preosteoclasts, prepared like the BMDMs, were plated in 96-well plates (7,000 cells per well, for TRAP staining, see below) or in 6-well plates (200,000 cells per well, for RNA) in standard medium supplemented with 20 ng/ml M-CSF and 50 ng/ml RANKL (R&D Systems, Minneapolis, MN, United States). After 48 h, the medium was replaced by the conditioned medium of BMDM, supplemented with RANKL and M-CSF. Where indicated, 10^−6 M SNV or VIP were added. […], cells were stained using a TRAP kit (Sigma-Aldrich, St. Louis, MO, United States), and multinucleated (>3 nuclei) TRAP-positive cells were defined as osteoclasts. Images were acquired at an original magnification of ×4 (Evos FLC, Life Technologies, MS, United States). The number of osteoclasts and the total osteoclast area were measured using ImageJ software (National Institutes of Health, Bethesda, MD, United States).
# FIGURE 3 Direct effect of VIP and SNV on osteoclastogenesis. (A) VPAC1 and (B) VPAC2 expression in M-CSF treated bone marrow-derived macrophages (Day 0) and M-CSF + RANKL treated pre-osteoclasts (Day 2) using RT-qPCR. […] (C-E) Osteoclastogenesis in the presence of 10^-6M VIP, SNV or vehicle only (control) performed in 96-well plates; TRAP-positive multinucleated osteoclasts were evaluated after 5 days of differentiation. […]
# [3] = tested on: histidine auxotrophs of Salmonella typhimurium; experiment: Study 005 mutagenic potential (Ames test); type: cell-based
# Procedure: Although, the studies were not carried out under Good Laboratory Practices (GLP) stipulations, SNV was synthesized under GLP conditions, and all the work was carried out at Tel Aviv University under meticulous conditions using professional staff and established methods (in a designated air-conditioned, clean room and specific luminary flow hood), which all strengthen the trustworthiness of the study results. Ames tests were carried out by Life Science Research Israel Ltd. Ness Ziona, Israel.
# [4] = Rat model of transepithelial penetrability (vaginal delivery of 125I-SNV, organ radioactivity); type: in vivo; conditions: 125I-labelled SNV
# From the text: Rat model of transepithelial penetrability. Because of the high hydrophobicity of SNV, we employed an iodination labeling protocol based on the Chloramine T method ([Markwell, 1982]) using 1 mCi Na^125I with a few modifications that included 1) the dissolution of SNV in dimethylformamide (DMF), 2) replacement of the phosphate buffer with 0.2 M HEPES (pH = 7.6), a more compatible buffer, and 3) reaction termination by the addition of sodium metabisulfite and KI. The pharmacokinetic profile of ^125I-SNV absorption and distribution was evaluated following vaginal delivery of the compound to rats. Wistar rats at the estrus phase received 50 µl (7.0 µCi/rat, 15 million CPM, 100 Ci/mM specific activity) of ^125I-SNV dissolved in 5% Sefsol, applied directly in the vagina, using a P100 micro pipettor. At the indicated time points, we anesthetized the rats with chloral hydrate and collected blood before cervical dislocation. We then harvested the uterus, liver, lungs, heart, intestine, kidneys and vagina (duplicate samples were taken from each organ). Organs were weighed and radioactivity levels were measured using a gamma counter. Each point on the chart represents at least two rats.
# 7.0 microCi/rat (15 million CPM, 100 Ci/mmole specific activity) of radioactive SNV was delivered in the vagina of rats at T0. Each point on the chart represents at least two rats. Levels of radioactivity were monitored over 250 min to assess the remaining amount of SNV in the vagina (A) versus its distribution in the indicated organs (B) as a measure of its penetrability through the vaginal epithelium. Data are Mean ± SD.
# [5] = subcutaneous, 7 mg/rat (1000X, group 4)
# [6] = 7.0 µCi/rat in 5% Sefsol, vaginal delivery, Wistar rats at estrus, monitored over 250 min, gamma counter, at least two rats per point
substance,measurement,setting,value
"Stearyl–HSDAVFTDNYTRLRKQ-Nle-AVKKYLNSILN-NH2 [SNV, Stearyl-norleucine-VIP, lipophilic VIP derivative with N-terminal stearic acid and norleucine in place of methionine at position 17]",Acute median lethal subcutaneous dose,"[1]; S.D. rats, 6 males + 6 females per group, single injection close to penile or vaginal tissue, 14 observation days, 7 mg/rat = maximal practical dose","Under the conditions of this study, the acute median lethal subcutaneous dose of SNV was found to be greater the 7 mg/rat, which is the maximal practical dose"
same,Mortality,"[1]; subcutaneous, 7 µg/rat (1×), 14 observation days",None
same,Mortality,"[1]; subcutaneous, 7 mg/rat (1000X), 14 observation days",None
same,Reactions: body weight,[1]; [5],"significant weight loss until 8th day, returning to original weight on day 12–14"
same,Reactions: diarrhea,[1]; [5],"Diarrhea in 2 males of group 4 (1000X) 5–24 after injection, lasting for 2 days"
same,Reactions: skin necrosis,"[1]; subcutaneous, affected treatment group(s) not specified",Necrosis of abdominal (male only) or penile skin on day 13–14 after injection
same,Osteoclast differentiation (osteoclast number and total area),[2],comparable inhibitory effect
same,Revertant colony numbers over control,[3]; 0.3 to 312.5 µg/plate,No significant increases in revertant colony numbers over control with test material at doses ranging from 0.3 to 312.5 µg/plate
same,"Mutagenic activity, conclusion",[3]; 0.3–312.5 µg/standard bacterial plate,"Under the conditions of this study, the test material, SNV was devoid of mutagenic activity"
same,"Levels of SNV in the blood, heart, lungs, liver, gut, uterus and kidneys (radioactivity)",[4]; [6],steadily increased
same,Local levels of SNV in the vagina (radioactivity),[4]; [6],decline over time
same,Penetrability through the vaginal epithelium,"[4]; vaginal delivery in rats, over 250 min",high penetrability
